According to article PMC4285699 (Journal of molecular biology, 2009):

Columns and labels:
p66^501BpF/p51 RT = p66^501BpF/p51 RT (Human immunodeficiency virus type 1, UniProt P03366, Y1100X); test: FRET-based RNase H assay; assay type: biochemical, HIV-1
p66^AzF/p51 RT = test: FRET-based RNase H assay; assay type: biochemical, HIV-1; conditions: azido function at position 501 (AzF)
[1] = biological target: T1, HIV-1 RT-associated RNase H activity (polymerase-independent) (Human immunodeficiency virus type 1 group M subtype B, UniProt P03366); test: biochemical; conditions: IC50, primary cleavage, 600 nM chimeric hybrid labelled at 3' DNA end, 50 nM RT
[2] = biological target: HIV-1 RT-associated RNase H activity (Human immunodeficiency virus type 1 group M subtype B, UniProt P03366); test: Pre-steady-state single turnover RNase H reactions; assay type: biochemical; conditions: PFA 0-10 μM, dTMP-terminated primer
[3] = biological target: T1, HIV-1 RT-associated RNase H activity (polymerase-independent); assay type: biochemical; conditions: PFA 200 μM; chimeric substrate PBS-14r8d, 0-40 min

Row | SMILES | IC50 (p66^501BpF/p51 RT) | Effect of mutation on β-thujaplicinol sensitivity (p66^AzF/p51 RT) | IC50 [1] | Position of RNase H cleavage with increasing ligand concentration [2] | Inhibition of polymerase-independent RNase H cleavage [3]
1 | CC(C)c1ccc(O)c(=O)c(O)c1 [β-thujaplicinol] | > 300 µM | little to no effect | > 25 µM | – | –
2 | O=C(O)P(=O)(O)O [PFA, Phosphonoformic acid] | – | – | – | biased cleavage to position -19 | does not inhibit RNase H cleavage
